Assays:
Format in all cases: toxicity, cell-based
HEK-293T = assay: Incucyte cell viability with HEK293T; settings: human, 10 µM, compound concentration 10 uM
Fibroblast = assay: Incucyte cell viability with human fibroblast; settings: 10 µM, compound concentration 10 uM
U2OS = assay: Incucyte cell viability with U2OS; settings: human, 10 µM, compound concentration 10 uM
[1] = 0 h, replicate number 1, timepoint 0 hours
[2] = 0 h, replicate number 2, timepoint 0 hours
[3] = 6 h, replicate number 1, timepoint 6 hours
[4] = 6 h, replicate number 2, timepoint 6 hours
[5] = 12 h, replicate number 1, timepoint 12 hours
[6] = 12 h, replicate number 2, timepoint 12 hours
[7] = 18 h, replicate number 1, timepoint 18 hours
[8] = 18 h, replicate number 2, timepoint 18 hours
[9] = 24 h, replicate number 1, timepoint 24 hours
[10] = 24 h, replicate number 2, timepoint 24 hours
Also: filed as whole numbers so only -1 and 0 and 1 occur.

| SMILES | Growth Rate (HEK-293T; [1]) | Growth Rate (HEK-293T; [2]) | Growth Rate (HEK-293T; [3]) | Growth Rate (HEK-293T; [4]) | Growth Rate (HEK-293T; [5]) | Growth Rate (HEK-293T; [7]) | Growth Rate (HEK-293T; [8]) | Growth Rate (HEK-293T; [9]) | Growth Rate (Fibroblast; [1]) | Growth Rate (Fibroblast; [4]) | Growth Rate (Fibroblast; [5]) | Growth Rate (Fibroblast; [7]) | Growth Rate (Fibroblast; [9]) | Growth Rate (U2OS; [1]) | Growth Rate (U2OS; [3]) | Growth Rate (U2OS; [4]) | Growth Rate (U2OS; [5]) | Growth Rate (U2OS; [7]) | Growth Rate (U2OS; [9]) | Growth Rate (U2OS; [8]) | further results |
| --- | --- | --- | --- | --- | --- | --- | --- | --- | --- | --- | --- | --- | --- | --- | --- | --- | --- | --- | --- | --- | --- |
| CN(CCOc1ccc(CC2SC(=O)NC2=O)cc1)c1ccccn1 (centres undefined) [ROSIGLITAZONE] | 1 | 0 | 1 | 0 | 1 | 1 | 0 | 1 | 0 | 0 | 1 | 1 | 1 | 0 | 0 | 1 | 1 | 1 | 1 | – | Growth Rate (HEK-293T; [6]): 0; Growth Rate (HEK-293T; [10]): 0; Growth Rate (Fibroblast; [6]): 0; Growth Rate (Fibroblast; [8]): 0 |
| CCOC(=O)c1ncn2c1CN(C)C(=O)c1cc(F)ccc1-2 [FLUMAZENIL] | 0 | – | 1 | 0 | 1 | 1 | 0 | 1 | 0 | 0 | – | 1 | 1 | 1 | 0 | – | 0 | 0 | 0 | 1 | Growth Rate (HEK-293T; [6]): 0; Growth Rate (HEK-293T; [10]): 0; Growth Rate (Fibroblast; [6]): 0; Growth Rate (Fibroblast; [8]): 0; Growth Rate (U2OS; [10]): 1 |
| COc1ccc2c(c1)O[C@@H](c1ccc(OC)c(OC)c1)C[C@H]2NC(=O)C1(c2ccc3c(c2)OC(F)(F)O3)CC1 [A-1596586] | 1 | 0 | 0 | – | 0 | 0 | – | 0 | 0 | – | – | 1 | 1 | 0 | – | – | 1 | 1 | 1 | – | – |
| O=C(N1CCS(=O)(=O)CC1)N1C[C@H](c2ccc(OC(F)(F)F)cc2)C[C@H](c2nc(C3CC3)no2)C1 [BAY-386] | 0 | – | 1 | – | 0 | 0 | – | 0 | 0 | 0 | – | – | 1 | – | 0 | 1 | 0 | 0 | 0 | 1 | Growth Rate (HEK-293T; [6]): 1; Growth Rate (Fibroblast; [6]): 0; Growth Rate (Fibroblast; [8]): 0; Growth Rate (Fibroblast; [10]): 0; Growth Rate (U2OS; [2]): 0; Growth Rate (U2OS; [6]): 1; Growth Rate (U2OS; [10]): 1 |
| COc1cc(N2CCC(O)CC2)ccc1Nc1cc(Nc2ccccc2S(=O)(=O)C(C)C)c2cc[nH]c2n1 | – | 1 | 0 | – | 0 | 0 | – | 0 | 1 | 1 | – | – | – | – | 1 | – | 1 | 1 | 1 | 0 | Growth Rate (Fibroblast; [2]): 0; Growth Rate (Fibroblast; [6]): 1; Growth Rate (Fibroblast; [10]): 1; Growth Rate (U2OS; [10]): 0 |
| CCN(CCO)CCCOc1ccc2c(Nc3cc(CC(=O)Nc4cccc(F)c4)[nH]n3)ncnc2c1 [DEFOSBARASERTIB] | – | 1 | – | 1 | – | – | – | 1 | – | – | 0 | 0 | 0 | 1 | 0 | – | 0 | 0 | 0 | – | Growth Rate (Fibroblast; [2]): 1; Growth Rate (Fibroblast; [3]): 0 |
| Cl.O=C(Cc1ccc(Cl)c(Cl)c1)N1CCCC[C@H]1CN1CCCC1 | – | 0 | 0 | – | 0 | 0 | 1 | 0 | 0 | – | – | – | – | 0 | – | 1 | 1 | 1 | 1 | – | Growth Rate (Fibroblast; [2]): 1 |
| CN1CCN(c2ccc(-c3cccc(CN4CCOCC4)c3)cc2NC(=O)c2c[nH]c(=O)cc2C(F)(F)F)CC1 | – | 1 | 0 | – | 0 | 1 | – | 1 | – | 0 | 1 | 1 | 1 | 0 | 1 | 0 | 0 | 0 | 1 | 1 | Growth Rate (Fibroblast; [2]): 1; Growth Rate (Fibroblast; [6]): 0; Growth Rate (U2OS; [10]): 0 |
| COc1cc(C#N)ccc1S(=O)(=O)Nc1ccc2c(c1)cc(C)c(=O)n2C | 1 | – | 0 | – | 0 | 0 | 1 | 0 | – | 0 | 0 | 0 | 1 | 0 | 0 | 1 | 0 | 0 | 0 | 1 | Growth Rate (Fibroblast; [2]): 0; Growth Rate (Fibroblast; [3]): 1; Growth Rate (Fibroblast; [10]): 0; Growth Rate (U2OS; [6]): 1; Growth Rate (U2OS; [10]): 1 |
| CCCCC#Cc1nc(NC)c2ncn([C@@H]3O[C@H](CO)[C@@H](O)[C@H]3O)c2n1 | 0 | – | 0 | 1 | 0 | 0 | 1 | 0 | 0 | – | 1 | 1 | 1 | 0 | 0 | – | 1 | 1 | 1 | – | Growth Rate (HEK-293T; [6]): 1; Growth Rate (HEK-293T; [10]): 1; Growth Rate (Fibroblast; [3]): 1; Growth Rate (U2OS; [6]): 0 |
| Cc1cn2cc(CC(=O)N3CCC4(CC3)CN(Cc3ccc(-n5nccn5)cc3Cl)C4)nc2s1 | 1 | 0 | 0 | – | 0 | 0 | – | 0 | 1 | – | 0 | 0 | 1 | 0 | – | 0 | 1 | 1 | 1 | – | Growth Rate (Fibroblast; [3]): 0; Growth Rate (Fibroblast; [10]): 0 |
| COc1ccc2c(c1)O[C@H](c1ccc(OC)c(OC)c1)C[C@@H]2NC(=O)C1(c2ccc3c(c2)OC(F)(F)O3)CC1 [A-1596584] | 1 | 0 | 0 | – | 0 | 0 | – | 0 | 0 | – | 1 | 1 | 1 | 0 | – | 0 | 1 | 1 | 1 | 0 | Growth Rate (Fibroblast; [8]): 0; Growth Rate (Fibroblast; [10]): 0; Growth Rate (U2OS; [6]): 0 |
| Cc1ccc2[nH]c(CNCCCc3ccncc3)cc(=O)c2c1 [UCSF924NC] | 1 | 0 | 0 | 1 | 0 | 0 | 1 | 0 | 1 | – | 0 | 0 | 0 | – | 0 | – | 0 | 0 | 0 | 1 | Growth Rate (HEK-293T; [6]): 1; Growth Rate (HEK-293T; [10]): 1; Growth Rate (Fibroblast; [3]): 0; Growth Rate (U2OS; [6]): 1 |

From ChEMBL document CHEMBL4689842, “EUbOPEN Chemogenomics Library wave 1” (2021)
